Experimental data taken from article PMC6130490, “Inhibition of key enzymes linked to type 2 diabetes by compounds isolated from Aframomum melegueta fruit” (Pharmaceutical Biology, 2017).
Where two headings read alike, the source gives them in different places.

Experiments:
Type in all cases: biochemical
[1] = target: T1, Saccharomyces cerevisiae α-glucosidase (E.C. 3.2.1.20) (Saccharomyces cerevisiae, UniProt P53341); experiment: biochemical; conditions: for type of inhibition of α-glucosidase: Lineweaver-Burke plot
T1 construct: purchased Sigma-Aldrich through Capital Lab Supplies
T1 sequence (P53341 whole entry): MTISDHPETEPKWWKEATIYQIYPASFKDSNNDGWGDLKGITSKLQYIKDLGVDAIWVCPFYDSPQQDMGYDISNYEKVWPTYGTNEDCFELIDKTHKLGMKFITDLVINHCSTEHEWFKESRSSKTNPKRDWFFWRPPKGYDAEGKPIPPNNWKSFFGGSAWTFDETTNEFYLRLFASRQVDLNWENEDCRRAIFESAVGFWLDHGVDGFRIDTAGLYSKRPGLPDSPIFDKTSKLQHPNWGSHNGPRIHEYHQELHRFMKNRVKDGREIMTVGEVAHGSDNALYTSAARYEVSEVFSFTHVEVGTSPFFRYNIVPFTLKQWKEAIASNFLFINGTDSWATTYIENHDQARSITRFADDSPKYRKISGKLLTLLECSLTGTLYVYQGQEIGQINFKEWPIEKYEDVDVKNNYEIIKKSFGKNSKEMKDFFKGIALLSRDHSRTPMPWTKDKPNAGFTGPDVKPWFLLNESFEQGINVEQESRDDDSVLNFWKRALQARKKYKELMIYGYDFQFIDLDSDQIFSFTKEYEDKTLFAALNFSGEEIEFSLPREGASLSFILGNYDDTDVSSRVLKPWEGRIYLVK
Procedure: (§1) The 5.0 mM p-nitrophenyl glucopyranoside (pNPG) substrate solution was prepared in 20 mM phosphate buffer, pH 6.9. […] Thereafter, 250 μL of 5.0 mM pNPG was dissolved in 20 mM phosphate buffer (pH 6.9) as a substrate to start the reaction. The reaction mixture was incubated at 37 °C for 30 min.
(§2) The isolated compounds were subjected to kinetic experiments to determine the type of inhibition exerted on α-amylase and α-glucosidase. The experiment was conducted according to the protocols mentioned above at a constant concentration of the compounds (30 μg/mL) with a variable concentration of substrate. […] The initial velocity data obtained were used to construct Lineweaver-Burke plots to determine the K M (Michaelis constant) and v max (maximum velocity) of the enzyme as well as the Ki (inhibition binding constant as a measure of affinity of the inhibitor to the enzyme) and the type of inhibition for both enzymes.

[2] = target: T2, porcine pancreatic α-amylase (E.C. 3.2.1.1) (Sus scrofa, UniProt P00690); experiment: Mechanism of α-amylase inhibition (Lineweaver-Burke kinetics); conditions: compound 30 μg/mL; for type of inhibition of α-amylase: Lineweaver-Burke plot; for KM, α-amylase inhibition / Ki / Vmax, α-amylase inhibition: starch 0.063–1.0%
T2 construct: purchased Sigma-Aldrich through Capital Lab Supplies
T2 sequence (P00690 16-511): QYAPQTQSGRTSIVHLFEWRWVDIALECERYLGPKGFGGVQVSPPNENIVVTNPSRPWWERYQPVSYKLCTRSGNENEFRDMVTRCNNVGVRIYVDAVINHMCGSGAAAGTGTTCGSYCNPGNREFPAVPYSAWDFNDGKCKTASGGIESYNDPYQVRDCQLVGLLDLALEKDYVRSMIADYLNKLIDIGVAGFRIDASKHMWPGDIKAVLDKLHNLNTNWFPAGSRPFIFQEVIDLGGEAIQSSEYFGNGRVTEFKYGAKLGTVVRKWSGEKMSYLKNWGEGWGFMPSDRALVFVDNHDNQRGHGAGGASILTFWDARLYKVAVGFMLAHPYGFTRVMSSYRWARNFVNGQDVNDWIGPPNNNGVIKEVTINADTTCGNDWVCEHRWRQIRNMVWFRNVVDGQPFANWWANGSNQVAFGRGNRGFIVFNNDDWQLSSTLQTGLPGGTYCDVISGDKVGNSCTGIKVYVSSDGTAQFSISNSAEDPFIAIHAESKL
Procedure: (§3) This solution was pre-incubated at 25 °C for 10 min, after which 250 μL of 1% starch solution in 0.02 M sodium phosphate buffer (pH 6.9) was added at a time interval of 10 s and then further incubated at 25 °C for 10 min. The reaction was terminated after incubation by adding 1 mL of dinitrosalicylic acid (DNS) reagent. The tube was then boiled for 10 min and cooled to room temperature. […] A control was prepared using the same procedure using distilled water instead of the compound.
as §2

[3] = target: T2, porcine pancreatic α-amylase (E.C. 3.2.1.1); experiment: α-Amylase inhibitory effect (starch/DNS method); conditions: mean ± SD of triplicate; compounds tested at 30–240 μg/mL; read-out: IC50 α-amylase inhibition
Procedure: (§4) Saccharomyces cerevisiae α-glucosidase (E.C. 3.2.1.20), porcine pancreatic α-amylase (E.C. 3.2.1.1), p-nitrophenyl glucopyranoside (pNPG) and p-nitrophenol were obtained from Sigma-Aldrich through Capital Lab Supplies, New Germany, South Africa. Starch, dinitrosalicylic acid (DNS), maltose, absolute ethanol and ethyl acetate were obtained from Merck Chemical Company, Durban, South Africa.
as §3

[4] = target: T1, Saccharomyces cerevisiae α-glucosidase (E.C. 3.2.1.20); experiment: α-Glucosidase inhibitory effect (pNPG method)
Procedure: as §4, §1

[5] = compound 30 μg/mL, pNPG 0.313–5.0 mM
[6] = compound 30 μg/mL, pNPG 0.313–5.0 mM, read-out: Ki, α-glucosidase inhibition (converted)
[7] = mean ± SD of triplicate, compounds tested at 30–240 μg/mL, read-out: IC50 α-glucosidase inhibition

CC1(C)CC[C@]2(C(=O)O)CC[C@]3(C)C(=CC[C@@H]4[C@@]5(C)CC[C@H](O)C(C)(C)[C@@H]5CC[C@]43C)[C@@H]2C1 [Oleanolic acid (4), oleanolic acid]
Vmax, α-glucosidase inhibition [1, 5]: 64.20 µmol/min

CCCCCCCC(=O)CCc1ccc(O)c(OC)c1 [6-Paradol (1), 6-paradol]
type of inhibition of α-amylase [2]: noncompetitive
KM, α-amylase inhibition [2]: 0.06%
Ki [2]: 83.7 µM
Vmax, α-amylase inhibition [2]: 15.60 µmol/min
IC50 [3]: 665 ± 11.6 µM
type of inhibition of α-glucosidase ([1]; compound 30 μg/mL): noncompetitive
Vmax, α-glucosidase inhibition [1, 5]: 81.20 µmol/min
Ki [1, 6]: 22.4 µM
IC50 [4, 7]: 243 ± 6.65 µM

CCCCC[C@H](O)CC(=O)CCc1ccc(O)c(OC)c1 [6-Gingerol (3), 6-gingerol]
type of inhibition of α-amylase [2]: noncompetitive
KM, α-amylase inhibition [2]: 0.06%
Ki [2]: 89.9 µM
Vmax, α-amylase inhibition [2]: 16.73 µmol/min
IC50 [3]: 81.8 ± 7.79 µM
Ki [1]: 26.6 µM
type of inhibition of α-glucosidase ([1]; compound 30 μg/mL): noncompetitive
Vmax, α-glucosidase inhibition [1, 5]: 123.10 µmol/min
IC50 [4]: 21.5 ± 0.45 µM

CCCCC/C=C/C(=O)CCc1ccc(O)c(OC)c1 [6-Shagaol (2), 6-shogaol]
type of inhibition of α-amylase [2]: mixed
KM, α-amylase inhibition [2]: 0.09%
Ki [2]: 226 µM
Vmax, α-amylase inhibition [2]: 24.10 µmol/min
IC50 [3]: 443.2 ± 1.38 µM
Vmax, α-glucosidase inhibition [1, 5]: 55.70 µmol/min
Ki [1, 6]: 14.5 µM
IC50 [4, 7]: 326 ± 5.6 µM
